# Results as given in US9862704B2, “Oxindole derivatives carrying an amine-substituted piperidyl-acetidinyl substituent and use thereof for treating vasopressine-related diseases” (AbbVie Deutschland GmbH & Co. KG, priority 2013, dated 2018).
# pKi: −log10 of the molar value.
# How the values were obtained:
# [1] = target: T1, human vasopressin V1b receptor (Homo sapiens, UniProt P47901); experiment: biochemical
# T1 sequence (P47901 1-424): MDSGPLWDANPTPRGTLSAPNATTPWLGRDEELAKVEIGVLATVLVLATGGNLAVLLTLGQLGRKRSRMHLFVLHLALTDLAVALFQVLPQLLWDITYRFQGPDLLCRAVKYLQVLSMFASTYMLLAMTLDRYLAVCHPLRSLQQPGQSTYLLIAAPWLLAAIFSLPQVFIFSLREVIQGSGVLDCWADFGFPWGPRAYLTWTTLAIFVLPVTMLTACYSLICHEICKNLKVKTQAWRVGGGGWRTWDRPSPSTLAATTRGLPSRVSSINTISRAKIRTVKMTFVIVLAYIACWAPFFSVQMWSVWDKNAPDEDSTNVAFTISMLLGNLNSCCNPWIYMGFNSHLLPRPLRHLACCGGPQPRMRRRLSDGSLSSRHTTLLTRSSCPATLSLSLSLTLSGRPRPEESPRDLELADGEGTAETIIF
# [2] = target: human vasopressin V1a receptor (Homo sapiens, UniProt P37288); experiment: Vasopressin V1a receptor binding assay; conditions: selectivity quotient, human V1a vs human V1b
# human vasopressin V1a receptor, sequence (P37288 whole entry): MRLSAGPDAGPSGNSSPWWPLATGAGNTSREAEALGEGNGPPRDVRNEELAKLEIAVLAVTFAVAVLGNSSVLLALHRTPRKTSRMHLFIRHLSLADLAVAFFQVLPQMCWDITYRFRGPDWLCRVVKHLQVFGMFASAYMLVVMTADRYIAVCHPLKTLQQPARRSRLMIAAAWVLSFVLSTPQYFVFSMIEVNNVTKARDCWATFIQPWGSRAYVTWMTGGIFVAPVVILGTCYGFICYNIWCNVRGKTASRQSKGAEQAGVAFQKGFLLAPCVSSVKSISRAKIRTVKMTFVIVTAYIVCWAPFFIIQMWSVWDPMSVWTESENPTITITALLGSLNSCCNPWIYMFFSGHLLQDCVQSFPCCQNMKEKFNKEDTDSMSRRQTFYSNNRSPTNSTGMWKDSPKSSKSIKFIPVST
SMILES,pKi [1],Ki(hV1a)/Ki(hV1b) [2]
"CCOc1ncccc1[C@]1(NC(=O)N2CC(N3CCC(N4CCCCC4)CC3)C2)C(=O)N(S(=O)(=O)c2ccc(OC)cc2OC)c2ccc(C#N)cc21 [Example 1, N-[(3S)-5-cyano-1-(2,4-dimethoxyphenyl)sulfonyl-3-(2-ethoxy-3-pyridyl)-2-oxoindolin-3-yl]-3-[4-(1-piperidyl)-1-piperidyl]azetidine-1-carboxamide]",> 9.00,+++ (>75)
"CCOc1ncccc1[C@]1(NC(=O)N2CC(N3CCC(N(C)C)CC3)C2)C(=O)N(S(=O)(=O)c2ccc(OC)cc2OC)c2ccc(C#N)cc21 [Example 2, (S)—N-(5-cyano-1-((2,4-dimethoxyphenyl)sulfonyl)-3-(2-ethoxypyridin-3-yl)-2-oxoindolin-3-yl)-3-(4-(dimethylamino)piperidin-1-yl)azetidine-1-carboxamide]",8.00 to 9.00,+++ (>75)
"COc1ccc(S(=O)(=O)N2C(=O)[C@@](NC(=O)N3CC(N4CCC(N5CCCC5)CC4)C3)(c3cccnc3OC)c3cc(C#N)ccc32)c(OC)c1 [Example 6, (S)—N-(5-cyano-1-((2,4-dimethoxyphenyl)sulfonyl)-3-(2-methoxypyridin-3-yl)-2-oxoindolin-3-yl)-3-(4-(pyrrolidin-1-yl)piperidin-1-yl)azetidine-1-carboxamide]",8.00 to 9.00,+++ (>75)
"CCOc1ncccc1[C@]1(NC(=O)N2CC(N3CCC(N4CCCCC4)CC3)C2)C(=O)N(S(=O)(=O)c2ccc(OC)cc2OC)c2ccc(Cl)cc21 [Example 8, (S)-3-([1,4′-bipiperidin]-1′-yl)-N-(5-chloro-1-((2,4-dimethoxyphenyl)sulfonyl)-3-(2-ethoxypyridin-3-yl)-2-oxoindolin-3-yl)azetidine-1-carboxamide]",> 9.00,–

# More lines, now with the values ahead:
pKi [1],Ki(hV1a)/Ki(hV1b) [2],SMILES
8.00 to 9.00,+++ (>75),"CCOc1ncccc1[C@]1(NC(=O)N2CC(N3CCC(N(CC)CC)CC3)C2)C(=O)N(S(=O)(=O)c2ccc(OC)cc2OC)c2ccc(C#N)cc21 [Example 3, (S)—N-(5-cyano-1-((2,4-dimethoxyphenyl)sulfonyl)-3-(2-ethoxypyridin-3-yl)-2-oxoindolin-3-yl)-3-(4-(diethylamino)piperidin-1-yl)azetidine-1-carboxamide]"
8.00 to 9.00,+++ (>75),"CCOc1ncccc1[C@]1(NC(=O)N2CC(N3CCC(N4CCCC4)CC3)C2)C(=O)N(S(=O)(=O)c2ccc(OC)cc2OC)c2ccc(C#N)cc21 [Example 4, (S)—N-(5-cyano-1-((2,4-dimethoxyphenyl)sulfonyl)-3-(2-ethoxypyridin-3-yl)-2-oxoindolin-3-yl)-3-(4-(pyrrolidin-1-yl)piperidin-1-yl)azetidine-1-carboxamide]"
> 9.00,+++ (>75),"COc1ccc(S(=O)(=O)N2C(=O)[C@@](NC(=O)N3CC(N4CCC(N5CCCCC5)CC4)C3)(c3cccnc3OC)c3cc(C#N)ccc32)c(OC)c1 [Example 5, (S)-3-([1,4′-bipiperidin]-1′-yl)-N-(5-cyano-1-((2,4-dimethoxyphenyl)sulfonyl)-3-(2-methoxypyridin-3-yl)-2-oxoindolin-3-yl)azetidine-1-carboxamide]"
8.00 to 9.00,+++ (>75),"CCOc1ncccc1[C@]1(NC(=O)N2CC(N3CCC(N4CCC4)CC3)C2)C(=O)N(S(=O)(=O)c2ccc(OC)cc2OC)c2ccc(C#N)cc21 [Example 7, (S)-3-(4-(azetidin-1-yl)piperidin-1-yl)-N-(5-cyano-1-((2,4-dimethoxyphenyl)sulfonyl)-3-(2-ethoxypyridin-3-yl)-2-oxoindolin-3-yl)azetidine-1-carboxamide]"
> 9.00,–,"CCOc1ncccc1[C@]1(NC(=O)N2CC(N3CCC(N4CCCC4)CC3)C2)C(=O)N(S(=O)(=O)c2ccc(OC)cc2OC)c2ccc(Cl)cc21 [Example 9, (S)—N-(5-chloro-1-((2,4-dimethoxyphenyl)sulfonyl)-3-(2-ethoxypyridin-3-yl)-2-oxoindolin-3-yl)-3-(4-(pyrrolidin-1-yl)piperidin-1-yl)azetidine-1-carboxamide]"
